Results from publication PMC9696794, “Synthesis and Antimicrobial Activity of Short Analogues of the Marine Antimicrobial Peptide Turgencin A: Effects of SAR Optimizations, Cys-Cys Cyclization and Lipopeptide Modifications” (International Journal of Molecular Sciences, 2022).
Values after ≈ are worked out from the molar mass of the structure shown. Where a SMILES comes first, the peptide text is derived from it. The star is where a group is joined. Lauroyl = CCCCCCCCCCCC(=O)*

Key:
E. coli (Ec, ATCC 25922) = assay: microbe, parasite or virus in culture; assay type: cell-based, Escherichia coli; conditions: for MIC: Escherichia coli, ATCC25922, Table 2, laboratory strain, read-out: MIC E. coli ATCC 25922 (from Table 1)
Description: (§1) All cyclic and linear peptides were screened for antibacterial activity against four Gram-positive strains: B. subtilis (Bs, ATCC 23857), C. glutamicum (Cg, ATCC 13032), S. aureus (Sa, ATCC 9144) and S. epidermidis RP62A (Se, ATCC 35984), and two Gram-negative strains: E. coli (Ec, ATCC 25922) and P. aeruginosa (Pa, ATCC 27853). The activity was assessed using a broth microdilution assay according to a modified CLSI-based method. Briefly, overnight bacterial cultures were grown in Mueller–Hinton (MH) broth medium (Difco Laboratories, Detroit, MI, USA) for 2 h at room temperature. The optical density (OD600) was measured, and the bacterial suspensions were adjusted to 2.5–3 × 10^4 CFU/mL in MH medium. The bacterial suspension (50 µL) was distributed in 96-well plates (Nunc, Roskilde, Denmark) preloaded with two-fold dilution series (256 to 1 µg/mL) of peptide solutions (50 µL), giving a final well volume of 100 µL. The microplates were incubated in an EnVision 2103 microplate reader (PerkinElmer, Llantrisant, UK) at 35 °C, with OD595 recorded every hour for 24 h. MIC was defined as the lowest concentration of peptides showing an optical density less than 10% of the negative (growth) control, consisting of bacterial suspension and water. Polymyxin B sulfate (Sigma-Aldrich, St. Louis, MO, USA) and chlorhexidine acetate (CHX, Fresenius Kabi, Halden, Norway), both with concentrations ranging from 12.5 to 0.09 μg/mL, served as positive (growth inhibition) controls. All peptides were tested in triplicate.

[1] = test system: E. coli MC4100 (wild type, WT); assay: microbe, parasite or virus in culture; conditions: Escherichia coli, read-out: MIC E. coli MC4100 (WT)
Description: as §1
(§2) MIC values were determined for all cyclic peptides against two E. coli strains: wild type (WT) MC4100 and the hyperpermeable variant NR698, having a deficient outer membrane. The NR698 strain, containing lptD4213/imp4213 mutation, was kindly provided by M. Grabowicz (Emory University School of Medicine, Rollins Research Center, Atlanta, GA, USA). The assay was performed in the same way as previously described for the antibacterial MIC assay.

[2] = test system: E. coli NR698 (outer membrane permeable mutant, imp4213); assay: microbe, parasite or virus in culture; conditions: Escherichia coli, read-out: MIC E. coli NR698 (mutant)
Description: as §1, §2

[3] = test system: B. subtilis (Bs, ATCC 23857); assay: microbe, parasite or virus in culture; assay type: cell-based, Bacillus subtilis; conditions: ATCC 23857, 24 h
Description: as §1

[4] = test system: C. glutamicum (Cg, ATCC 13032); assay: microbe, parasite or virus in culture; assay type: cell-based, Corynebacterium glutamicum; conditions: ATCC 13032, 24 h
Description: as §1

[5] = test system: S. aureus (Sa, ATCC 9144); assay: microbe, parasite or virus in culture; assay type: cell-based, Staphylococcus aureus; conditions: ATCC 9144, 24 h
Description: as §1

[6] = test system: S. epidermidis RP62A (Se, ATCC 35984); assay: microbe, parasite or virus in culture; assay type: cell-based, Staphylococcus epidermidis; conditions: ATCC 35984, 24 h
Description: as §1

[7] = test system: P. aeruginosa (Pa, ATCC 27853); assay: microbe, parasite or virus in culture; assay type: cell-based, Pseudomonas aeruginosa; conditions: ATCC 27853, 24 h
Description: as §1

all bacterial strains = assay: Antibacterial MIC assay, all bacterial strains together (range or geometric mean); assay type: cell-based
Description: The selectivity index (SI) of the peptides towards bacteria over eukaryotic cells was calculated using the geometric mean (GM) of the MIC values against all bacterial test strains, according to the method by Orlov et al.. The SI for each peptide was determined as the ratio of the RBC-EC50 value by the corresponding GM value. Larger SI values indicate greater selectivity for microbial cells. […] In general, the SI was higher against the Gram-positive bacteral strains than the Gram-negative strains. (Table S3). Overall, peptides displaying EC50 < 100 µg/mL were considered too haemolytic to be of interest for further exploration.
as §1

A. pullulans (Ap) = assay: microbe, parasite or virus in culture; assay type: cell-based, Aurobasidium pollulans; conditions: 48 h
Description: (§3) The synthesized peptides were screened for antifungal activity against the molds A. pullulans (Ap) and Rhodotorula sp. (Rh) (both obtained from Professor Arne Tronsmo, The Norwegian University of Life Sciences, Ås, Norway) and the yeast C. albicans (Ca, ATCC 10231) as previously described. In short, fungal spores were grown in potato dextrose broth media (Difco) containing 2% D(+)-glucose (Merck, Darmstadt, Germany) at 25–30 °C while shaking at 200 rpm overnight. The cultures were diluted with a dextrose media containing glucose to a concentration of approx. 4 × 10^5 spores/mL. Aliquots of the cultures (50 µL) were transferred to 96 well microtiter plates preloaded with the synthetic peptides (50 µL) in two-fold serial dilutions (256 to 1 µg/mL). Polymyxin B and CHX (both with concentrations ranging from 12.5 to 0.09 μg/mL) served as positive antibiotic controls. The microtiter plates containing the fungal spores and the test peptides were incubated at room temperature for 48 h and OD600 was recorded using a Synergy H1 Hybrid microplate reader system (BioTek, Winooski, VT, USA). MIC was defined as the lowest peptide concentration showing an optical density less than 10% of the negative (growth) control. All experiments were performed in triplicate.

[8] = test system: C. albicans (Ca, ATCC 10231); assay: microbe, parasite or virus in culture; assay type: cell-based, Candida albicans; conditions: ATCC 10231, 48 h
Description: as §3

Rhodotorula sp. (Rh) = assay: microbe, parasite or virus in culture; assay type: cell-based; conditions: 48 h
Description: as §3

[9] = test system: human red blood cells (RBC); assay: Haemolytic activity assay; assay type: cell-based
Description: The synthetized lipopeptides were screened for haemolytic activity against human red blood cells (RBC), in concentrations ranging from 500 to 3.9 μM, following a previously described protocol. In brief, haemolysis was determined using a heparinizied (10 IU/mL) fraction of freshly drawn human blood. A second fraction of blood, which was collected in test tubes containing ethylenediaminetetraacetic acid (EDTA, Vacutest, KIMA, Arzergrande, Italy), was used for determination of the hematocrit (hct). Plasma was removed from heparinized blood by washing three times with prewarmed phosphate-buffered saline (PBS) before being adjusted to a hematocrit of 4%. Peptides dissolved in dimethyl sulfoxide (DMSO) were further diluted with PBS to a final DMSO content of ≤1%. Triton X-100 (Sigma-Aldrich, St. Louis, MO, USA), used at a final concentration of 0.1%, served as a positive control for 100% haemolysis, whereas 1% DMSO in PBS buffer served as a negative control where no toxicity was detected. Duplicates of test solutions and erythrocytes, with 1% hct final concentration, were prepared in a 96-well polypropylene V-bottom plate (Nunc, Fischer scientific, Oslo, Norway). They were incubated under agitation at 37 °C and 800 rpm for 1 h. After centrifugation (5 min, 3000× g), 100 µL from each well were transferred to a flat-bottomed 96-well plate and absorbance was measured at 545 nm with a microplate reader (SpectraMax 190, Molecular Devices, San Jose, CA, USA). After subtracting PBS background, the percentage of haemolysis was calculated as the ratio of the absorbance in the peptide-treated and surfactant-treated samples. Three independent experiments were performed, and EC50 (the concentration giving 50% haemolysis) values are presented as averages.

[10] = test system: Gram-positive bacterial strains; conditions: Table S3; MIC >256 set to 256
Description: as §1

[11] = test system: Gram-negative bacterial strains (E. coli and P. aeruginosa); assay: Antibacterial MIC assay, Gram-negative strains together (range or geometric mean); assay type: cell-based; conditions: Table S3; MIC >256 set to 256
Description: as §1

[12] = test system: fungi (A. pullulans, C. albicans, Rhodotorula sp.); assay: Antifungal MIC assay, all fungi together (range or geometric mean); assay type: cell-based; conditions: Table S3; MIC >128 set to 128
Description: as §3

CC1(C)S[C@@H]2[C@H](NC(=O)[C@H](N)c3ccccc3)C(=O)N2[C@H]1C(=O)O [Ampicillin, reference compound]
MIC (E. coli (Ec, ATCC 25922)): 8 µg/mL (≈ 22.9 µM)
MIC [1]: 8 µg/mL (≈ 22.9 µM)

O=C(N[C@H](CO)[C@H](O)c1ccc([N+](=O)[O-])cc1)C(Cl)Cl [Chloramphenicol, reference compound]
MIC (E. coli (Ec, ATCC 25922)): 1.8 µg/mL (≈ 5.57 µM)
MIC [1]: 12.5 µg/mL (≈ 38.7 µM)
MIC [2]: 3.1 µg/mL (≈ 9.59 µM)

CCCCCCCCCCCC(=O)N[C@@H](CS)C(=O)NCC(=O)N[C@@H](CCCCN)C(=O)N[C@@H](CCCCN)C(=O)N[C@@H](Cc1c[nH]c2ccccc12)C(=O)N[C@@H](Cc1c[nH]c2ccccc12)C(=O)NCC(=O)N[C@@H](Cc1c[nH]c2ccccc12)C(=O)N[C@@H](CCCCN)C(=O)N[C@@H](CS)C(=O)N[C@@H](CCCCN)C(=O)N[C@@H](CC(C)C)C(N)=O [Peptide C12-Turg-2, C12- CGKKWWGWKC KL-NH2] (Lauroyl-CGKKWWGWKCKL-NH2)
Antimicrobial Activity (MIC) Gram + Bs [3]: 8 µg/mL
Antimicrobial Activity (MIC) Gram + Cg [4]: 16 µg/mL
Antimicrobial Activity (MIC) Gram + Sa [5]: 16 µg/mL
Antimicrobial Activity (MIC) Gram + Se [6]: 8 µg/mL
Antimicrobial Activity (MIC) Gram − Ec (E. coli (Ec, ATCC 25922); ATCC 25922, 24 h): 16 µg/mL
Antimicrobial Activity (MIC) Gram − Pa [7]: 32 µg/mL
GM (geometric mean of the MIC values against all bacterial strains) (all bacterial strains; Table 1, six bacterial strains): 14 µg/mL
GM of MIC Tot. bact. (all bacterial strains; Table S3, all bacterial test strains, MIC >256 set to 256): 14 µg/mL
Antimicrobial Activity (MIC) Fungi Ap (A. pullulans (Ap)): 32 µg/mL
Antimicrobial Activity (MIC) Fungi Ca [8]: 64 µg/mL
Antimicrobial Activity (MIC) Fungi Rh (Rhodotorula sp. (Rh)): 32 µg/mL
Selectivity index (SI) G- ([9]; Table S3, EC50/GM of Gram-negative strains, highest tested concentration used where EC50 above it): 2
Selectivity index (SI) G+ ([9]; Table S3, EC50/GM of Gram-positive strains, highest tested concentration used where EC50 above it): 5
Selectivity index (SI) Fungi ([9]; Table S3, EC50/GM of fungi, highest tested concentration used where EC50 above it): 1
SI (selectivity index = EC50/GM) ([9]; haemolytic EC50 over GM of MIC against all bacterial strains, Table 1): 4
GM of MIC G+ [10]: 11 µg/mL
GM of MIC G- [11]: 23 µg/mL
GM of MIC Fungi [12]: 40 µg/mL
